Where a name gives a salt, the structure may show the parent alone.

What is called melting point is the temperature, or range, at which the solid turns liquid. Consider `CN1CCC(OC(c2cccc(SCCCCN)c2)c2nc3ccccc3[nH]2)CC1` (stereo not drawn) (as salt: oxalate) [Example 326, 4-{3-[(1H-benzimidazol-2-yl)(1-methylpiperidin-4-yloxy)methyl]phenylsulfanyl}butylamine], for which the melting point was 146 °C.
Compound `CN1CCC(OC(c2cccc(OCCN3CCN(C(=O)OC(C)(C)C)CC3)c2)c2nc3ccccc3s2)CC1` (stereo not drawn) (as salt: oxalate) [Example 329, 4-(2-{3-[benzothiazol-2-yl(1-methylpiperidin-4-yloxy)methyl]phenoxy}ethyl)piperazine-1-carboxylic acid tert-butyl ester] registered a melting point of 90 °C.
As to `CN1CCC(OC(c2cccc(OCCCCN)c2)c2nc3ccccc3[nH]2)CC1` (stereo not drawn) (as salt: oxalate) [Example 331, 4-{3-[(1H-benzimidazol-2-yl)(1-methylpiperidin-4-yloxy)methyl]phenoxy}butylamine], the melting point worked out at 115 °C.
The compound `CN1CCC(OC(c2cccc(OCCCCN3CCOCC3)c2)c2nc3ccccc3[nH]2)CC1` (stereo not drawn) (as salt: oxalate) [Example 332, 2-{(1-methylpiperidin-4-yloxy)[3-(4-morpholin-4-yl-butoxy)phenyl]methyl}-1H-benzimidazole] gave a melting point of 85 °C.
In turn, `CN1CCC(OC(c2cccc(OCCCCN3CCCCC3)c2)c2nc3ccccc3[nH]2)CC1` (stereo not drawn) (as salt: oxalate) [Example 333, 2-{(1-methylpiperidin-4-yloxy)[3-(4-piperidin-1-yl-butoxy)phenyl]methyl}-1H-benzimidazole] gave a melting point of 130 °C.
The figure for `CN1CCC(OC(c2cccc(OCCCn3cncn3)c2)c2nc3ccccc3s2)CC1` (stereo not drawn) (as salt: oxalate) [Example 348, 2-{(1-methylpiperidin-4-yloxy)[3-(3-[1,2,4]triazol-1-yl-propoxy)phenyl]methyl}benzothiazole] is 60 °C; for `CN1CCC(OC(c2cccc(OCCCn3nccn3)c2)c2nc3ccccc3s2)CC1` (stereo not drawn) (as salt: oxalate) [Example 349, 2-{(1-methylpiperidin-4-yloxy)[3-(3-[1,2,3]triazol-2-yl-propoxy)phenyl]methyl}benzothiazole] it is 74 °C; for `CN1CCC(OC(c2cccc(OCCCN3CCOCC3)c2)c2nc3ccccc3s2)CC1` (stereo not drawn) (as salt: oxalate) [Example 350, 2-{(1-methylpiperidin-4-yloxy)[3-(3-morpholin-4-yl-propoxy)phenyl]methyl}benzothiazole] it is 105 °C.
`CN1CCC(OC(c2cccc(OCCCl)c2)c2nc3ccccc3s2)CC1` (stereo not drawn) (as salt: oxalate) [Example 354, 2-[[3-(2-Chloroethoxy)phenyl](1-methylpiperidin-4-yloxy)methyl]benzothiazole]: the melting point is 70 °C.
`CN1CCC(OC(c2cccc(OCCN3CCCCC3)c2)c2nc3ccccc3[nH]2)CC1` (stereo not drawn) (as salt: oxalate) [Example 356, 2-{(1-methylpiperidin-4-yloxy)[3-(2-piperidin-1-yl-ethoxy)phenyl]methyl}-1H-benzimidazole] came in with a melting point of 160 °C.
On to `CN1CCC(OC(c2cccc(OCCCN3CCN(C(=O)OC(C)(C)C)CC3)c2)c2nc3ccccc3[nH]2)CC1` (stereo not drawn) (as salt: oxalate) [Example 360, 4-(3-{3-[(1H-benzimidazol-2-yl)(1-methylpiperidin-4-yloxy)methyl]phenoxy}propyl)piperazine-1-carboxylic acid tert-butyl ester], for which the melting point is 140 °C.
`CN1CCC(OC(c2cccc(CCCCN)c2)c2nc3ccccc3s2)CC1` (stereo not drawn) (as salt: oxalate) [Example 366, 4-{3-[benzothiazol-2-yl(1-methylpiperidin-4-yloxy)methyl]phenyl}butylamine] showed a melting point of 100 °C.
With `CN1CCC(OC(c2cccc(OCCN3CCN(C(=O)OC(C)(C)C)CC3)c2)c2nc3ccccc3[nH]2)CC1` (stereo not drawn) (as salt: oxalate) [Example 369, 4-(2-{3-[(1H-benzimidazol-2-yl)(1-methylpiperidin-4-yloxy)methyl]phenoxy}ethyl)piperazine-1-carboxylic acid tert-butyl ester] the figure was 92 °C.
Compound `CN1CCC(OC(c2cccc(OCCNCC(=O)OC(C)(C)C)c2)c2nc3ccccc3s2)CC1` (stereo not drawn) (as salt: oxalate) [Example 370, (2-{3-[benzothiazol-2-yl(1-methylpiperidin-4-yloxy)methyl]phenoxy}ethylamino)acetic acid tert-butyl ester] registered a melting point of 136 °C.
In turn, `CN1CCC(OC(c2cccc(OCCCCCN)c2)c2nc3ccccc3s2)CC1` (stereo not drawn) (as salt: oxalate) [Example 371, 5-{3-[benzothiazol-2-yl(1-methylpiperidin-4-yloxy)methyl]phenoxy}pentylamine] had a melting point of 141 °C.
Take `CN1CCC(OC(c2cccc(OCCCCCNCC(=O)OC(C)(C)C)c2)c2nc3ccccc3s2)CC1` (stereo not drawn) (as salt: oxalate) [Example 375, (5-{3-[benzothiazol-2-yl(1-methylpiperidin-4-yloxy)methyl]phenoxy}pentylamino)acetic acid tert-butyl ester]: the melting point came out at 99 °C.
`CN1CCC(OC(c2cccc(OCC3CCNCC3)c2)c2nc3ccccc3s2)CC1` (stereo not drawn) (as salt: oxalate) [Example 377, 2-{(1-methylpiperidin-4-yloxy)[3-(piperidin-4-ylmethoxy)phenyl]methyl}benzothiazole] registered a melting point of 90 °C.
The compound `CN1CCC(OC(c2cccc(OCC3CCCNC3)c2)c2nc3ccccc3s2)CC1` (stereo not drawn) (as salt: oxalate) [Example 378, 2-{(1-methylpiperidin-4-yloxy)[3-(piperidin-3-ylmethoxy)phenyl]methyl}benzothiazole] had a melting point of 55 °C.
The compound `CN1CCC(OC(c2cccc(OCC3CCCN(C)C3)c2)c2nc3ccccc3s2)CC1` (stereo not drawn) (as salt: oxalate) [Example 379, 2-[[3-(1-methylpiperidin-3-ylmethoxy)phenyl](1-methylpiperidin-4-yloxy)methyl]benzothiazole] had a melting point of 76 °C.
In turn, `CN1CCC(OC(c2cccc(SCCCCCN)c2)c2nc3ccccc3[nH]2)CC1` (stereo not drawn) (as salt: oxalate) [Example 381, 5-{3-[(1H-benzimidazol-2-yl)(1-methylpiperidin-4-yloxy)methyl]phenylsulfanyl}pentylamine] gave a melting point of 140 °C.
The compound `CN1CCC(OC(c2cccc(OC3CCNC3)c2)c2nc3ccccc3s2)CC1` (stereo not drawn) (as salt: oxalate) [Example 382, 2-{(1-methylpiperidin-4-yloxy)[3-(pyrrolidin-3-yloxy)phenyl]methyl}benzothiazole] yielded a melting point of 50 °C.
`CN1CCC(OC(c2cccc(C=CCCCO)c2)c2nc3ccccc3[nH]2)CC1` (stereo not drawn) (as salt: oxalate) [Example 389, 5-{3-[(1H-benzimidazol-2-yl)(1-methylpiperidin-4-yloxy)methyl]phenyl}pent-4-en-1-ol] registered a melting point of 125 °C.
In turn, `CN1CCC(OC(c2cccc(OCCCCCN3CCN(C(=O)OC(C)(C)C)CC3)c2)c2nc3ccccc3[nH]2)CC1` (stereo not drawn) (as salt: oxalate) [Example 391, 4-(5-{3-[(1H-benzimidazol-2-yl)(1-methylpiperidin-4-yloxy)methyl]phenoxy}pentyl)piperazine-1-carboxylic acid tert-butyl ester] came in with a melting point of 101 °C.
In turn, `CN1CCC(OC(c2cccc(OCCCCCN)c2)c2nc3ccccc3[nH]2)CC1` (stereo not drawn) (as salt: oxalate) [Example 400, 5-{3-[(1H-benzimidazol-2-yl)(1-methylpiperidin-4-yloxy)methyl]phenoxy}pentylamine] displayed a melting point of 111 °C.
With `CN1CCC(OC(c2cccc(OC3CNC3)c2)c2nc3ccccc3s2)CC1` (stereo not drawn) (as salt: oxalate) [Example 402, 2-[[3-(azetidin-3-yloxy)phenyl](1-methylpiperidin-4-yloxy)methyl]benzothiazole] the figure was 81 °C; with `CN1CCC(OC(c2cccc(N3CC(O)C3)c2)c2nc3ccccc3s2)CC1` (stereo not drawn) (as salt: oxalate) [Example 403, 1-{3-[benzothiazol-2-yl(1-methylpiperidin-4-yloxy)methyl]phenyl}azetidin-3-ol], 117 °C.
Compound `CN1CCC(OC(c2cccc(N3CCC(CO)C3)c2)c2nc3ccccc3s2)CC1` (stereo not drawn) (as salt: oxalate) [Example 404, (1-{3-[benzothiazol-2-yl(1-methylpiperidin-4-yloxy)methyl]phenyl}pyrrolidin-3-yl)methanol] yielded a melting point of 106 °C.
The figure for `CN1CCC(OC(c2cccc(N3CCC(N)CC3)c2)c2nc3ccccc3s2)CC1` (stereo not drawn) (as salt: oxalate) [Example 405, 1-{3-[benzothiazol-2-yl(1-methylpiperidin-4-yloxy)methyl]phenyl}piperidin-4-ylamine] is 137 °C.
Regarding `CN1CCC(OC(c2cccc(N3CCC(O)C3)c2)c2nc3ccccc3s2)CC1` (stereo not drawn) (as salt: oxalate) [Example 406, 1-{3-[benzothiazol-2-yl(1-methylpiperidin-4-yloxy)methyl]phenyl}pyrrolidin-3-ol], the melting point turned out to be 103 °C.
Compound `CN1CCC(OC(c2cccc(N3CCC(O)C3)c2)c2nc3ccccc3s2)CC1` (stereo not drawn) (as salt: oxalate) [Example 407, 1-{3-[benzothiazol-2-yl(1-methylpiperidin-4-yloxy)methyl]phenyl}pyrrolidin-3-ol] came in with a melting point of 106 °C.
On to `CC(=O)NC1CCN(c2cccc(C(OC3CCN(C)CC3)c3nc4ccccc4s3)c2)C1` (stereo not drawn) (as salt: oxalate) [Example 408, N-(1-{3-[benzothiazol-2-yl(1-methylpiperidin-4-yloxy)methyl]phenyl}pyrrolidin-3-yl)acetamide], for which the melting point came to 111 °C.
For the compound `CN1CCC(OC(c2cccc(C#CCCCn3cccn3)c2)c2nc3ccccc3[nH]2)CC1` (stereo not drawn) (as salt: oxalate) [Example 410, 2-{(1-methylpiperidin-4-yloxy)[3-(5-pyrazol-1-yl-pent-1-ynyl)phenyl]methyl}-1H-benzimidazole], the melting point came to 115 °C.
With `CN1CCC(OC(c2cccc(N3CCC(O)CC3)c2)c2nc3ccccc3s2)CC1` (stereo not drawn) (as salt: oxalate) [Example 411, 1-{3-[benzothiazol-2-yl(1-methylpiperidin-4-yloxy)methyl]phenyl}piperidin-4-ol] the figure was 110 °C.

The values above are taken from US8802664B2 (Bioproject, priority 2010, dated 2014).
